Data: patent US9790158B2, “Substituted tropolone derivatives and methods of use” (University of Connecticut, priority 2012, dated 2017)

Assays:
HuT-78 cells = test: cell-based cytotoxicity assay (Cell Titer 96 Aqueous One), HuT-78; conditions: 72-h exposure, absorbance at 490 nm
Experimental: (§1) All cell lines were purchased from ATCC (Manassas, Va.). Jurkat cells were cultured in RPMI 1640 (ATCC) supplemented with 10% fetal bovine serum (FBS; Atlanta Biologicals, Lawrenceville, Ga.). HuT-78 cells were cultured in IMDM (ATCC) supplemented with 20% FBS (Atlanta Biologicals). HT-29 and HCT116 were cultured in McCoy's media (Life Technologies, Carlsbad Calif.) supplemented with 10% FBS (Atlanta Biologicals), 1% non-essential amino acids (Mediatech Inc., Manassas, Va.) and 1% penicillin/streptomycin (Mediatech Inc).
(§2) Confluent Jurkat and HuT-78 cells were seeded in triplicate at a density of 5×10^4 cells/well whereas HT-29 and HCT116 cells were seeded in triplicate at a density of 5×10^3 cells/well in 96-well plates. Cells were treated at varying concentrations (1 μM-100 μM) of either a tropolone analog or SAHA. DMSO served as a vehicle control. After a 72-h exposure, cytotoxicity was evaluated using the Cell Titer 96 Aqueous One kit (Promega, Madison, Wis.) according to the instructions of the manufacturer. Formazan content was determined by measuring the absorbance at 490 nm on an Infinite M200 microplate reader (Tecan Group Ltd., Switzerland) and analyzed via non-linear regression analysis (GraphPad Software, Inc.).

human recombinant HDAC8 = human recombinant HDAC8 (Homo sapiens (Human), UniProt Q9BY41); test: fluorogenic HDAC inhibition assay, HDAC8; type: biochemical; conditions: IC50 converted to Ki with KM (Cheng and Prusoff); read-out: Ki HDAC-8
Experimental: Key enzyme kinetic parameters for one class I HDAC (HDAC8) and one class Ha HDAC (HDAC4) were determined using commercially available human recombinant HDAC enzymes (BPS Bioscience, San Diego, Calif.) and fluorogenic HDAC assay kits (BPS Bioscience). Kinetic parameters were determined by performing HDAC activity assays at varied concentrations of the HDAC substrate according to the manufacturer's protocol. Assay data were analyzed via non-linear regression (GraphPad Software, Inc., CA). Inhibition assays were used to determine the half maximal inhibitory concentration, IC50, for tropolone analogs in HDAC8 and […]. The potent hydroxamic acid HDAC inhibitor, Trichostatin A (TSA), provided in the assay kit, served as a control for the assays. IC50 values for the tropolone analogs were converted to inhibition constants, Ki, for each of the inhibitors using the KM value in accordance with the techniques previously described by Cheng and Prusoff.

Jurkat cells = test: cell-based cytotoxicity assay (Cell Titer 96 Aqueous One), Jurkat; conditions: 72-h exposure, absorbance at 490 nm
Experimental: as §1, §2

human recombinant HDAC4 = human recombinant HDAC4 (Homo sapiens, UniProt P56524); test: fluorogenic HDAC inhibition assay, HDAC4; type: biochemical; conditions: IC50 converted to Ki with KM (Cheng and Prusoff); read-out: Ki HDAC-4
Sequence of human recombinant HDAC4 (P56524 whole entry, looked up): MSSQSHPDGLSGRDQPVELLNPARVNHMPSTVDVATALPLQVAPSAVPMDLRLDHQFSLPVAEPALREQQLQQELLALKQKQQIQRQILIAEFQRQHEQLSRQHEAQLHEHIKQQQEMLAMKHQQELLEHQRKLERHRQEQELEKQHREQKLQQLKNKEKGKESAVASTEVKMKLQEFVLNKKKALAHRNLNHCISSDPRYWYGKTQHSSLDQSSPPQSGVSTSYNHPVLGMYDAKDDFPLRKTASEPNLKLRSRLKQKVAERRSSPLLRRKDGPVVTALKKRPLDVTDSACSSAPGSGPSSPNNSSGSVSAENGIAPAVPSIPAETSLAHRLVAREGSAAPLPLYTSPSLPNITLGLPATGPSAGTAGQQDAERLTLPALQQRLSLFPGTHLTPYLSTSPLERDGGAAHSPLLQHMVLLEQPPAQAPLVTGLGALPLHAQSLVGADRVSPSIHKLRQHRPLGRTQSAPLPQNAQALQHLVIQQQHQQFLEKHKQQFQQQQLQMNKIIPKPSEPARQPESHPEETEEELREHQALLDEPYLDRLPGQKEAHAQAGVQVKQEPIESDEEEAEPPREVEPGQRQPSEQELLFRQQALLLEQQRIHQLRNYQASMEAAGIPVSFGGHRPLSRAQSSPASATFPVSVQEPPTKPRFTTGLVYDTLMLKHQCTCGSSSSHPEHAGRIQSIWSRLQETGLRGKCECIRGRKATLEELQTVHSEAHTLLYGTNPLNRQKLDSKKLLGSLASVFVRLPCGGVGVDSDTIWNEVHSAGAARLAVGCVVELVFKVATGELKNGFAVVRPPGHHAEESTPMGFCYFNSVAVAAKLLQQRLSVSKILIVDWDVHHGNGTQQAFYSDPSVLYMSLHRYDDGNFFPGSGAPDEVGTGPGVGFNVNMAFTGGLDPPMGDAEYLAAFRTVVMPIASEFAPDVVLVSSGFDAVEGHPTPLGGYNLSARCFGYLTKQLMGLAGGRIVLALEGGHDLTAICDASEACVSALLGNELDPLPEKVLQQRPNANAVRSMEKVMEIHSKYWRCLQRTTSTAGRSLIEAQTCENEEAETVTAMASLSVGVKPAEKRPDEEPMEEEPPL

Sequence of human recombinant HDAC8 (Q9BY41 whole entry): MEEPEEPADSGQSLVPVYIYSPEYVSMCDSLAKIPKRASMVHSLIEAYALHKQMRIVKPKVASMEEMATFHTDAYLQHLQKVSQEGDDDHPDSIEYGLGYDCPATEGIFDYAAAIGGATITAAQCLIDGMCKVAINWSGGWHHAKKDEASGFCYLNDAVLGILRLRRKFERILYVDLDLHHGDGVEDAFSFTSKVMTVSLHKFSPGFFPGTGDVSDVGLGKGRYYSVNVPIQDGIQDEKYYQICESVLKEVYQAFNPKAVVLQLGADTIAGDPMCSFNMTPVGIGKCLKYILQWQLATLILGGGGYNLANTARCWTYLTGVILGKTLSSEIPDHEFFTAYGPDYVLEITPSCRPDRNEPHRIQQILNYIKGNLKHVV

Compound	IC50 (HuT-78 cells) [nM]	Ki (human recombinant HDAC8) [nM]	IC50 (Jurkat cells) [nM]	Ki (human recombinant HDAC4) [nM]	IC50 (HuT-78 cells; Homo sapiens, HuT78) [nM]	IC50 (Jurkat cells; Homo sapiens, Jurkat) [nM]
O=c1cc(C2CCCC2)cccc1O [Example 12]	11400	23.3	6300	6.64	–	–
O=c1c(O)ccccc1-c1ccc2ccccc2c1 [Example 2]	–	7.63	–	0.54	–	–
COc1ccc(OC)c(-c2ccccc(O)c2=O)c1 [Example 4]	–	0.44	–	184	3050	750
COc1ccc(OC)c(-c2cccc(O)c(=O)c2)c1 [Example 8]	17100	1.42	5880	541	–	–
O=c1c(O)ccccc1-c1ccccc1 [Example 1]	–	0.17	–	0.08	7830	3330
COc1cccc(-c2cccc(O)c(=O)c2)c1 [Example 7]	8950	1.36	4620	1.7	–	–
O=c1cccc(-c2ccccc2)cc1O [Example 6]	4140	19.4	670	72.8	–	–
COc1ccc(-c2ccccc(O)c2=O)cc1 [Example 3]	–	0.14	–	2.74	2870	620
CC(C)(C)c1cccc(O)c(=O)c1 [Example 10]	13100	2.69	4450	489	–	–
CCC(C)c1cccc(O)c(=O)c1 (stereo not shown) [Example 11]	3250	10.1	590	94.5	–	–
CC(C)c1cccc(O)c(=O)c1 [Example 9]	4990	105	1100	3.32	–	–
COc1ccc(-c2ccccc(O)c2=O)c(OC)c1OC [Example 5]	–	0.04	–	59	4740	1860
